Measurements published in patent US20160346249A1 (priority 2012, published 2016).
Like-named read-outs stand apart in the source and are kept apart here.

Key:
[1] = Rat pilot developmental toxicity study
Description: Clinical observations, body weights, and food consumption were recorded periodically. On GD 20, a laparohysterectomy was performed on each surviving female. The uteri, placentas, and ovaries were examined; gravid uterine weights, the numbers of fetuses, early and late resorptions, total implantations, and corpora lutea were recorded. The fetuses were weighed, sexed, and examined for external malformations and developmental variations.

[2] = Acute intravenous or oral rat bioavailability study; type: in vivo; details: plasma, oral 10 mg/kg vs IV 5 mg/kg, both sexes, read-out: absolute oral bioavailability
Description: Plasma samples were assayed using a validated LC/MS/MS assay.

[3] = 2-week dog toxicity and toxicokinetic study; type: in vivo
Description: Blood samples were collected on Day 0 and Day 13 of the study from up to 2 animals/gender/group.
Clinical pathology evaluations (hematology and serum chemistry) were performed prior to the initiation of treatment (Week −1) and just prior to the scheduled necropsy. At termination, necropsies were conducted and selected organs were weighed. Selected tissues were examined microscopically for animals in the control and high-dose groups.

[4] = Phase 2 efficacy study in patients with Major Depressive Disorder; type: in vivo, human
Excerpt: Subjects were identified who were between the ages of 18-65 (inclusive), and met criteria for Major Depressive Disorder in accordance with the Diagnostic and Statistical manual of Mental Disorders-IV-TR and confirmed by the MINI International Neuropsychiatric Interview.
Subjects were required to refrain from taking antidepressants, anticonvulsants including gabapentin and pregabalin, neuroleptics, MAO inhibitors, barbiturates, benzodiazepines, stimulants, antipsychotics, lithium, anxiolytics and beta blockers starting two weeks prior to the study and continuing until after the follow-up visit.
Samples were drawn to assess total bilirubin, alkaline phosphatase, ALT (SGPT), AST (SGOT), blood urea nitrogen (BUN), creatinine, glucose, uric acid, calcium, phosphorus, total protein, albumin, total cholesterol, LDL, HDL, triglycerides, sodium, potassium, bicarbonate, chloride, GGT and creatine kinase, Hepatitis B, C and HIV serologies, TSH, drug screen and serum pregnancy test for females.
Efficacy was determined by measuring the change from baseline in the Montgomery-Asberg Depression Rating Scale (MADRS), the HAMD-17, the Clinical Global Impression Global Improvement Scale (CGI-I), the Clinical Global Impression-Severity scale (CGI-S) and the Derogatis Interview for Sexual Functioning Self-Report (DISF-SR). […] Comparisons between treatment groups based on MADRS (the primary efficacy parameter), HAMD-17, Anhedonia, DISF-SR, CGI-I and CGI-S scores were analyzed using a mixed-repeated measures (MMRM) analysis model including factors for Subject, Visit, Treatment Arm and Baseline value as a covariate. Adjusted least-squares means from these models are presented. Comparisons between groups were made at each post-baseline visit using model-based contrasts and adjusted degrees of freedom. For these analyses no explicit data imputations were made prior to the analysis. Response and remission categorical data were analyzed using chi-square tests. Inferential analyses of safety data were conducted with ANOVA models or chi-square tests. Two-tail alpha was set to 0.05. All analyses were conducted using SAS version 9.2.

[5] = female, beagle, in vivo, po, 5 mg/kg/day, females, 5 mg/kg/day, Day 0
[6] = female, beagle, in vivo, po, 5 mg/kg/day, females, 5 mg/kg/day, Day 13
[7] = female, beagle, in vivo, po, 10 mg/kg/day, females, 10 mg/kg/day, Day 0
[8] = female, beagle, in vivo, po, 10 mg/kg/day, females, 10 mg/kg/day, Day 13
[9] = female, beagle, in vivo, po, 20 mg/kg/day, females, 20 mg/kg/day, Day 0
[10] = male, beagle, in vivo, po, 5 mg/kg/day, males, 5 mg/kg/day, Day 0
[11] = male, beagle, in vivo, po, 5 mg/kg/day, males, 5 mg/kg/day, Day 13
[12] = male, beagle, in vivo, po, 10 mg/kg/day, males, 10 mg/kg/day, Day 0
[13] = male, beagle, in vivo, po, 10 mg/kg/day, males, 10 mg/kg/day, Day 13
[14] = male, beagle, in vivo, po, 20 mg/kg/day, males, 20 mg/kg/day, Day 0
[15] = male, beagle, in vivo, po, 20 mg/kg/day, males, 20 mg/kg/day, Day 13
[16] = 100 mg, Visit 8, LOCF, Completers, 50% reduction or more of baseline total score
[17] = Visit 8 (Week 6), MMRM, MITT, n = 30

SMILES: Clc1ccc([C@]23CNC[C@H]2C3)cc1Cl [amitifadine, (+)-1-(3,4-dichlorophenyl)-3-azabicyclo[3.1.0]hexane]
- mean fetal weight ([1]; 25 mg/kg/day): statistically significant reduction in mean fetal weight
- maternal mortality ([1]; 50 mg/kg/day, GD 8, 9 or 10): all females in the 50 mg/kg/day group were euthanized in extremis
- bioavailability [2]: ≥ 77%
- (+) to (−) stereoisomer conversion [3]: no evidence of (+) to (−) stereoisomer conversion
- NOAEL at 14 days ([3]; both sexes, beagle, in vivo, oral capsule, 14 days, read-out: NOAEL for systemic toxicity): 10 mg/kg/day
- AUC(0-t) ([3]; female, beagle, in vivo, oral, 10 mg/kg/day, females, 10 mg/kg/day, Day 13, read-out: AUC0-24): 11200 ng·h/mL
- Cmax [3, 5]: 1650 ng/mL
- Tmax [3, 5]: 2 h
- AUC(0-t) ([3]; female, beagle, in vivo, po, 5 mg/kg/day, females, 5 mg/kg/day, Day 0, read-out: AUC0-24): 5570 ng·h/mL
- Cmax [3, 6]: 2040 ng/mL
- Tmax [3, 6]: 1 h
- AUC(0-t) ([3]; female, beagle, in vivo, po, 5 mg/kg/day, females, 5 mg/kg/day, Day 13, read-out: AUC0-24): 5610 ng·h/mL
- Cmax [3, 7]: 3450 ng/mL
- Tmax [3, 7]: 1 h
- AUC(0-t) ([3]; female, beagle, in vivo, po, 10 mg/kg/day, females, 10 mg/kg/day, Day 0, read-out: AUC0-24): 15000 ng·h/mL
- Cmax [3, 8]: 2800 ng/mL
- Tmax [3, 8]: 2 h
- Cmax [3, 9]: 9950 ng/mL
- Tmax [3, 9]: 1 h
- AUC(0-t) ([3]; female, beagle, in vivo, po, 20 mg/kg/day, females, 20 mg/kg/day, Day 0, read-out: AUC0-24): 57100 ng·h/mL
- Cmax ([3]; female, beagle, in vivo, po, 20 mg/kg/day, females, 20 mg/kg/day, Day 13): 3530 ng/mL
- AUC(0-t) ([3]; female, beagle, in vivo, po, 20 mg/kg/day, females, 20 mg/kg/day, Day 13, read-out: AUC0-24): 11500 ng·h/mL
- AUC(0-t) ([3]; male, beagle, in vivo, oral, 10 mg/kg/day, males, 10 mg/kg/day, Day 13, read-out: AUC0-24): 3170 ng·h/mL
- Cmax [3, 10]: 1580 ng/mL
- Tmax [3, 10]: 1 h
- AUC(0-t) ([3]; male, beagle, in vivo, po, 5 mg/kg/day, males, 5 mg/kg/day, Day 0, read-out: AUC0-24): 7360 ng·h/mL
- Cmax [3, 11]: 1840 ng/mL
- Tmax [3, 11]: 2 h
- AUC(0-t) ([3]; male, beagle, in vivo, po, 5 mg/kg/day, males, 5 mg/kg/day, Day 13, read-out: AUC0-24): 7550 ng·h/mL
- Cmax [3, 12]: 3830 ng/mL
- Tmax [3, 12]: 1 h
- AUC(0-t) ([3]; male, beagle, in vivo, po, 10 mg/kg/day, males, 10 mg/kg/day, Day 0, read-out: AUC0-24): 13800 ng·h/mL
- Cmax [3, 13]: 1280 ng/mL
- Tmax [3, 13]: 1 h
- Cmax [3, 14]: 11600 ng/mL
- Tmax [3, 14]: 1 h
- AUC(0-t) ([3]; male, beagle, in vivo, po, 20 mg/kg/day, males, 20 mg/kg/day, Day 0, read-out: AUC0-24): 41700 ng·h/mL
- Cmax [3, 15]: 9280 ng/mL
- Tmax [3, 15]: 1 h
- AUC(0-t) ([3]; male, beagle, in vivo, po, 20 mg/kg/day, males, 20 mg/kg/day, Day 13, read-out: AUC0-24): 32800 ng·h/mL
- DISF-SR scores vs placebo ([4]; 100 mg, low and high baseline groups): no differences between (+)-1-(3,4-dichlorophenyl)-3-azabicyclo[3.1.0]hexane 100 mg and placebo
- Response rate, HAMD-17 (%) [4, 16]: 55.00%
- Response rate, MADRS (%) [4, 16]: 40.00%
- Remission rate, HAMD-17 (%) ([4]; 100 mg, Visit 8, LOCF, Completers, HAMD-17 ≦ 7): 20.00%
- Remission rate, MADRS (%) ([4]; 100 mg, Visit 8, LOCF, Completers, MADRS ≦ 12): 30.00%
- Anhedonia factor (LS Mean - SE) [4, 17]: 7.92 (0.50)
- CGI-I (LS Mean - SE) [4, 17]: 2.13 (0.20)
- CGI-S (LS Mean - SE) [4, 17]: 3.31 (0.15)
- HAMD-17 (LS Mean - SE) [4, 17]: 14.90 (1.40)
- MADRS (LS Mean - SE) [4, 17]: 18.16 (1.21)
- MADRS, Difference (95% CI) placebo vs drug ([4]; Visit 8, MMRM, MITT, P = 0.028): 3.83 (0.41, 7.26)
- CGI-I, Difference (95% CI) placebo vs drug ([4]; Visit 8, MMRM, MITT, P = 0.030): 0.62 (0.06, 1.18)
- Anhedonia factor, Difference (95% CI) placebo vs drug ([4]; Visit 8, MMRM, MITT, P = 0.049): 1.41 (0.01, 2.82)
- HAMD-17, Difference (95% CI) placebo vs drug ([4]; Visit 8, MMRM, MITT, P = 0.125): 3.12 (−0.87, 7.12)
- CGI-S, Difference (95% CI) placebo vs drug ([4]; Visit 8, MMRM, MITT, P = 0.306): 0.22 (−0.21, 0.66)
- Diastolic BP - Standing, Mean Change from baseline ([4]; Visit 8, Safety Population, n = 33, P value vs. placebo 0.017): −3.00 mm Hg
- Supine Pulse, Mean Change from baseline ([4]; Visit 8, Safety Population, n = 33, P value vs. placebo 0.145): 1.55 beats per minute
- LDL Cholesterol Fasting, Mean Change from baseline ([4]; Visit 8, Safety Population, n = 33, P value vs. placebo 0.374): -4.29 mg/dL
- Total Cholesterol Fasting, Mean Change from baseline ([4]; Visit 8, Safety Population, n = 33, P value vs. placebo 0.412): -5.86 mg/dL
- Systolic BP - Standing, Mean Change from baseline ([4]; Visit 8, Safety Population, n = 33, P value vs. placebo 0.509): 0.069 mm Hg
- Triglycerides Fasting, Mean Change from baseline ([4]; Visit 8, Safety Population, n = 33, P value vs. placebo […]): -12.00 mg/dL
- Systolic BP - Supine, Mean Change from baseline ([4]; Visit 8, Safety Population, n = 33, P value vs. placebo 0.904): 2.58 mm Hg
- Diastolic BP - Supine, Mean Change from baseline ([4]; Visit 8, Safety Population, n = 33, P value vs. placebo 0.961): −0.38 mm Hg
- Weight, Mean Change from baseline ([4]; Visit 8, Safety Population, n = 33, P value vs. placebo 0.965): 0.078 kg
- overall statistical effect size (Cohen's d), MADRS ([4]; Week 6): −0.63
- MADRS total score, estimated LS mean change from baseline (MMRM) ([4]; Week 6, placebo […], p=0.028): 18.16
- patients who reported an adverse treatment event ([4]; human, in vivo): 30.30%
- Treatment-Emergent Adverse Event: Abdominal Pain (NOS), % of Patients ([4]; n = 33): 6.06%
- Treatment-Emergent Adverse Event: Abdominal Pain (NOS), number of patients ([4]; n = 33): 2
- Treatment-Emergent Adverse Event: Anxiety, % of Patients ([4]; n = 33): 6.06%
- Treatment-Emergent Adverse Event: Anxiety, number of patients ([4]; n = 33): 2
- Treatment-Emergent Adverse Event: Diarrhea NOS, % of Patients ([4]; n = 33): 6.06%
- Treatment-Emergent Adverse Event: Diarrhea NOS, number of patients ([4]; n = 33): 2
- Treatment-Emergent Adverse Event: Emotional Disturbance NOS, % of Patients ([4]; n = 33): 6.06%
- Treatment-Emergent Adverse Event: Emotional Disturbance NOS, number of patients ([4]; n = 33): 2
- Treatment-Emergent Adverse Event: Headache NOS, % of Patients ([4]; n = 33): 9.09%
- Treatment-Emergent Adverse Event: Headache NOS, number of patients ([4]; n = 33): 3
- Treatment-Emergent Adverse Event: Irritability, % of Patients ([4]; n = 33): 6.06%
- Treatment-Emergent Adverse Event: Irritability, number of patients ([4]; n = 33): 2
- Treatment-Emergent Adverse Event: Nausea, % of Patients ([4]; n = 33): 6.06%
- Treatment-Emergent Adverse Event: Nausea, number of patients ([4]; n = 33): 2
- Treatment-Emergent Adverse Event: Rash NOS, % of Patients ([4]; n = 33): 6.06%
- Treatment-Emergent Adverse Event: Rash NOS, number of patients ([4]; n = 33): 2
- Treatment-Emergent Adverse Event: Upper Respiratory Tract Infection NOS, % of Patients ([4]; n = 33): 6.06%
- Treatment-Emergent Adverse Event: Upper Respiratory Tract Infection NOS, number of patients ([4]; n = 33): 2
